Literature values, collected in patent US20250066504A1, “USE OF OREGOVOMAB AND PARP INHIBITORS FOR TREATMENT OF OVARIAN CANCER” (CANARIABIO INC., priority 2022, published 2025).
Where “and” joins values, the source holds several entries; their conditions need not be identical. Equal entries are not always repeated. Where two headings read alike, the source gives them in different places.

Key:
[1] = system: platinum-sensitive, recurrent ovarian cancer
[2] = 300 mg dose
[3] = not given; remark: listed apart in the source
[4] = system: ovarian cancer
[5] = system: patient-derived Ewing sarcoma; details: mouse, in vivo
[6] = in vivo
[7] = system: BRCA1-mutant xenograft; details: dosed orally
[8] = biological target: P-glycoprotein (P-gp) (Homo sapiens, UniProt P08183)
P-glycoprotein (P-gp), sequence (P08183 whole entry): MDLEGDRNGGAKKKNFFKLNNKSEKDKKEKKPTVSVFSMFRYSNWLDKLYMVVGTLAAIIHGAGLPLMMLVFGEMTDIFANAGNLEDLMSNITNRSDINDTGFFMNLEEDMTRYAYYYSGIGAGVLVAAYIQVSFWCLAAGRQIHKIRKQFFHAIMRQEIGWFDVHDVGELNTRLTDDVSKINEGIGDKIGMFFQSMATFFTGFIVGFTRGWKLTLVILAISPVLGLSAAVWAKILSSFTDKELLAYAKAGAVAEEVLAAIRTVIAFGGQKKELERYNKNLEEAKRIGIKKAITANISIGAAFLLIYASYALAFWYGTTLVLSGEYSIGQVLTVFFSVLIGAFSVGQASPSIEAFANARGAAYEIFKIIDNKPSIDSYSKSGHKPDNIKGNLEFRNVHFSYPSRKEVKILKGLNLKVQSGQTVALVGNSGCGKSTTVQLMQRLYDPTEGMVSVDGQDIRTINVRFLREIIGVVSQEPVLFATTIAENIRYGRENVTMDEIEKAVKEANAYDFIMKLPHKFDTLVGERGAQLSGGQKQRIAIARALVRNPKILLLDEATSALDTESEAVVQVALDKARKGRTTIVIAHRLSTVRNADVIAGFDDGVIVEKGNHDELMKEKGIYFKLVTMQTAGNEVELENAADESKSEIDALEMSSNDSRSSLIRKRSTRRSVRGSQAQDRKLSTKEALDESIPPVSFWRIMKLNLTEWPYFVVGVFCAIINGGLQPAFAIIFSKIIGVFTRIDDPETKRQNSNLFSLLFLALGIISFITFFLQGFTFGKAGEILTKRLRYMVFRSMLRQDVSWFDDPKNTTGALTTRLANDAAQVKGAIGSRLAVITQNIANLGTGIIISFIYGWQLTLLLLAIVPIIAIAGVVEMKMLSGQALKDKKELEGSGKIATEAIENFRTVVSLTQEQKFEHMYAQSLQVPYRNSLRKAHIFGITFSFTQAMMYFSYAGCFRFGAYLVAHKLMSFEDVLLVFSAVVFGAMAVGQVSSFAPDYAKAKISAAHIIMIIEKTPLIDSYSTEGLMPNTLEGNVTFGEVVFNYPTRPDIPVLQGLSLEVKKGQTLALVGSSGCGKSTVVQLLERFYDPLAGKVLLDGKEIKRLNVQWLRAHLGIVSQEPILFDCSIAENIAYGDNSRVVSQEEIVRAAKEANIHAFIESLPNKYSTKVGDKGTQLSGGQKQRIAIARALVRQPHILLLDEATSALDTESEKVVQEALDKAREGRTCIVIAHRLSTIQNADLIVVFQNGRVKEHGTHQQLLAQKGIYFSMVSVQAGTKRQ

[9] = system: cells with HRD
[10] = for grade 3/4 thrombocytopenia rate in the first 30 days: classification tree model
[11] = system: BRCA1-mutant breast cancer (MDA-MB-436)
[12] = system: patient-derived ovarian and breast cancer xenograft; details: in vivo
[13] = system: BRCA2-mutant pancreatic cancer (CAPAN-1)
[14] = human, in vivo
[15] = system: tumor; details: tumor-bearing mice
[16] = system: normal human organs and tissues
[17] = normal rabbits
[18] = 100 times the estimated human dose equivalent (2 mg/60 kg body weight)
[19] = system: CA125
[20] = system: CA-125-expressing tumors; details: mouse, in vivo
[21] = system: immune suppressive malignancy; details: immune initiation alone
[22] = normal rats
[23] = human, in vivo; remark: listed apart in the source
[24] = 100 times the estimated human dose equivalent (2 mg/60 kg body weight); remark: listed apart in the source
[25] = system: adenocarcinomas expressing the CA125 antigen
[26] = system: platinum resistant disease
[27] = system: platinum-sensitive recurrent ovarian cancer; details: added to standard chemotherapy, followed by maintenance until progression
[28] = system: platinum-sensitive disease; details: added to gemcitabine and carboplatin
[29] = system: advanced epithelial ovarian, adnexal, or primary peritoneal cancer, Stage III and Stage IV; details: K-M method
[30] = HRDpos (Within non-gBRCAmut Cohort)
[31] = Non-gBRCAmut Cohort (Regardless of HRD Status)
[32] = lower baseline platelets (<180×10^9/L)

Compound: NC(=O)c1cccc2cn(-c3ccc([C@@H]4CCCNC4)cc3)nc12 [Niraparib]
- incidence of MDS/AML (5 of 367): 1.4%
- anemia (all grades) (human, in vivo): 49%
- constipation (all grades) (human, in vivo): 40%
- decreased platelet count (all grades) (human, in vivo): 20%
- fatigue (all grades) (human, in vivo): 46%
- nausea (all grades) (human, in vivo): 74%
- neutropenia (all grades) (human, in vivo): 18%
- on-treatment deaths (human, in vivo): no on-treatment deaths
- subjects with at least 1 treatment-emergent adverse event (TEAE) (human, in vivo): All 367
- thrombocytopenia (all grades) (human, in vivo): 46%
- vomiting (all grades) (human, in vivo): 34%
- TEAEs leading to dose reduction (overall safety population): 69%
- TEAEs leading to treatment discontinuation (overall safety population): 15%
- TEAEs leading to treatment interruption (overall safety population): 67%
- incidence of Grade 3 or 4 TEAEs (overall safety population): 74%
- incidence of serious adverse events (SAEs) (overall safety population): 30%
- HR (niraparib:placebo) [1, 30]: 0.38
- Median PFS [1, 30]: 12.9 months
- HR (niraparib:placebo) [1, 31]: 0.45
- Median PFS [1, 31]: 9.3 months
- Median PFS ([1]; gBRCAmut Cohort, 300 mg QD): 21.0 months
- HR (niraparib:placebo) ([1]; gBRCAmut Cohort, stratified Cox proportional hazards model): 0.27
- efficacy at the reduced dose ([1]; retrospective analyses from NOVA): did not compromise efficacy
- HR ([1]; subjects with HRDneg tumors): 0.58
- Median PFS ([1]; subjects with HRDneg tumors): 6.9 months
- bone marrow suppression (neutropenia, thrombocytopenia, and anemia), subjects [2]: 20-40%
- hypertension/hypertensive crisis, subjects ([2]; treatment for up to two years): 9%
- correlation between exposure level (plasma concentration) and QTc changes (ΔQTcF) ([3]; in vivo): no correlation
- clinically significant abnormal ECG changes, including QTc interval prolongation, attributed to niraparib ([3]; n=26): no reports
- QT interval ([3]; therapeutic dose): did not prolong
- ORR ([4]; 98 subjects in the HRD-positive cohort, RECIST v1.1, 300 mg once daily): 24%
- Estimated median DOR ([4]; HRD-positive cohort): 8.3 months
- new safety signals ([4]; in vivo): No new safety signals
- subjects achieving an overall response ([4]; primary efficacy population (13 of 47)): 28%
- ORR ([4]; tBRCAm ovarian cancer, platinum-refractory disease (3/16)): 19%
- ORR ([4]; tBRCAm ovarian cancer, platinum-resistant disease (6/21)): 29%
- ORR ([4]; tBRCAm ovarian cancer, platinum-sensitive disease (7/18)): 39%
- antitumor activity [5]: strong antitumor activity
- effect of food on absorption [6]: does not significantly affect
- reduction in tumor weight compared with control [7]: > 90%
- tumor response [7]: tumor regression
- substrate for P-gp [8]: relatively poor substrate
- synthetic lethality ([9]; cells with HRD): induce synthetic lethality
- effect on normal DNA repair mechanisms ([9]; pre-clinical models): inhibit normal DNA repair mechanisms
- grade 3/4 thrombocytopenia rate in the first 30 days ([10]; baseline body weight <77 kg or baseline platelet count <150,000 μL): approximately 30%
- grade 3/4 thrombocytopenia rate in the first 30 days ([10]; baseline body weight <77 kg or baseline platelet count <150,000 μL, listed as niraparib): 35.4% and ~30%
- incidence of grade 3 or 4 thrombocytopenia in the first 30 days ([10]; baseline body weight ≥77 kg): 14%
- incidence of grade 3 or 4 thrombocytopenia in the first 30 days ([10]; body weight <58 kg): 43%
- subjects with a dose reduction ([10]; body weight <58 kg): approximately 80%
- grade 3/4 thrombocytopenia rate in the first 30 days ([10]; body weight >77 kg and platelet count >150,000 μL): 11.5%
- treatment discontinuations ([10]; highest quartile (≥77 kg)): 10%
- frequency of thrombocytopenia Grade ≥1 [10, 32]: 76%
- frequency of thrombocytopenia Grade ≥3 [10, 32]: 45%
- treatment discontinuations ([10]; lower body weight (<58 kg quartile)): 24%
- subjects with a dose reduction ([10]; weight greater than or equal to 77 kg): 59%
- antitumor activity [11]: strong antitumor activity
- response in patient-derived xenograft models [12]: demonstrated response in both BRCAmut and BRCA wild-type tumors
- antitumor activity [13]: strong antitumor activity

Compound: O=C(c1cc(Cc2n[nH]c(=O)c3ccccc23)ccc1F)N1CCN(C(=O)C2CC2)CC1 [olaparib]
- myelodysplastic syndrome (MDS) and acute myeloid leukemia (AML) [14]: have been observed

Compound: Oregovomab
- cellular responses [15]: evident
- humoral response [15]: strong humoral response
- survival ([15]; compared to controls): increase in survival
- tumor size ([15]; compared to controls): decrease in tumor size
- cross-reactivity with selected normal human organs and tissues [16]: does not show any significant cross-reactivity
- humoral response [17]: strong humoral response
- acute toxicity [18]: lack of significant acute toxicity
- affinity of binding to CA125 [19]: 1.16e+10 M⁻¹
- binding force to cancer antigen 125 (CA-125) ([19]; during blood circulation): less than nano units
- ascites production [20]: inhibited ascites production
- survival [20]: long-term survival
- tumor size [20]: reduced tumor size
- effect on the clinical course of disease [21]: insufficient to alter the clinical course of disease
- humoral response [22]: strong humoral response
- apparent terminal half-life (t1/2z) [23]: around 33 hours
- clearance on repeat administration [23]: accelerated
- dose of the radiotracer eliminated in the urine [23]: less than 50%
- mean residence time (MRT) [23]: about 45 hours
- plasma clearance [23]: around 110 mL/minute
- acute toxicity [24]: lack of significant acute toxicity
- binding to adenocarcinomas expressing the CA125 antigen [25]: selective binding

Compound: bevacizumab
- PFS ([26]; added to pegylated liposomal doxorubicin, weekly paclitaxel, or topotecan): improved PFS
- OS ([26]; added to single agent chemotherapy): not OS
- median overall survival [27]: improved the median overall survival
- OS [28]: no difference in OS
- PFS [28]: improved PFS

Compound: paclitaxel/carboplatin
- OS (median) [29]: 43.2 months
- PFS (median) [29]: 12.2 months
- time to clinical progression (TTCP) (median) [29]: 13.6 months
